This is an account of results in ChEMBL document CHEMBL3085716, “Hytramycins V and I, anti-Mycobacterium tuberculosis hexapeptides from a Streptomyces hygroscopicus strain” (J Nat Prod, 2013).

Converted amounts (≈) assume the structure as drawn.

In test [1] the test system is Escherichia coli. As to the kind of experiment: Antibacterial activity against Escherichia coli ATCC 25922 at 10 ug/ml after 16 hrs. The class given is functional. To be noted: ATCC 25922, 16 h.
Another test concerns Enterococcus faecalis. As to the kind of experiment: Antibacterial activity against Enterococcus faecalis ATCC 29212 after 16 hrs. The class given is functional. To be noted: ATCC 29212, 16 h.
Test [2] deals with Mycobacterium tuberculosis. As to the kind of experiment: Antimycobacterial activity against Mycobacterium tuberculosis clinical isolate X005282 under normoxic condition after 7 days by MABA assay. The class given is functional. To be noted: clinical isolate X005282, 168 h. In general terms: Resazurin is reduced to fluorescent resorufin, in cell work by metabolically active cells.

The test system of test [3] is Mycobacterium tuberculosis. As to the kind of experiment: Antimycobacterial activity against Mycobacterium tuberculosis clinical isolate X004244 under normoxic condition after 7 days by MABA assay. The class given is functional. To be noted: clinical isolate X004244, 168 h.
Test [4] concerns Mycobacterium tuberculosis. As to the kind of experiment: Ratio of MIC for Mycobacterium tuberculosis H37Rv under normoxic condition in presence of 4% bovine serum albumin to MIC for Mycobacterium tuberculosis H37Rv under normoxic condition in absence of 4% bovine serum albumin by MABA assay. The class given is functional.
The subject of test [5] is Mycobacterium tuberculosis. As to the kind of experiment: Antimycobacterial activity against Mycobacterium tuberculosis clinical isolate X001354 under normoxic condition after 7 days by MABA assay. To be noted: clinical isolate X001354, 168 h. The class given is functional.
The subject of the next test is Vero. As to the kind of experiment: Cytotoxicity against african green monkey Vero cells. The class given is cell-based. To be noted: Chlorocebus sabaeus.
Test [6] has as its system Mycobacterium tuberculosis. As to the kind of experiment: Antimycobacterial activity against Mycobacterium tuberculosis H37Rv under normoxic condition after 7 days by MABA assay. The class given is functional.
Test [7] relates to Staphylococcus aureus. As to the kind of experiment: Antibacterial activity against Staphylococcus aureus ATCC 29213 after 16 hrs. The class given is functional. To be noted: ATCC 29213, 16 h.
The test system of test [8] is Candida albicans. As to the kind of experiment: Antifungal activity against Candida albicans ATCC 10231 at 10 ug/ml after 48 hrs. The class given is functional. To be noted: ATCC 10231, 48 h.
Test [9] concerns Mycobacterium tuberculosis. As to the kind of experiment: Antimycobacterial activity against Mycobacterium tuberculosis clinical isolate X003899 under normoxic condition after 7 days by MABA assay. The class given is functional. To be noted: clinical isolate X003899, 168 h.
For test [10], the system named is Pseudomonas aeruginosa. As to the kind of experiment: Antibacterial activity against Pseudomonas aeruginosa ATCC 27853 after 16 hrs. The class given is functional. To be noted: ATCC 27853, 16 h.
Test [11] concerns Mycolicibacterium smegmatis. As to the kind of experiment: Antimycobacterial activity against Mycobacterium smegmatis ATCC 700084 under normoxic condition after 72 hrs by MABA assay. The class given is functional. To be noted: ATCC 700084, 72 h.
Test [12] relates to Acinetobacter baumannii. As to the kind of experiment: Antibacterial activity against Acinetobacter baumannii ATCC BAA-747 after 16 hrs. The class given is functional. To be noted: ATCC BAA-747, 16 h.
Test [13] has as its system Mycobacterium tuberculosis. As to the kind of experiment: Antimycobacterial activity against Mycobacterium tuberculosis H37Rv under normoxic condition after 7 days by MABA assay in presence of 4% bovine serum albumin. The class given is functional. To be noted: 168 h.
In test [14] the test system is Pseudomonas aeruginosa. As to the kind of experiment: Antibacterial activity against Pseudomonas aeruginosa ATCC 27853 at 10 ug/ml after 16 hrs. The class given is functional. To be noted: ATCC 27853, 16 h.
For test [15], the system named is Mycobacterium tuberculosis. As to the kind of experiment: Antimycobacterial activity against Mycobacterium tuberculosis H37Rv under normoxic condition after 7 days by MABA assay in presence of 10% fetal bovine serum. The class given is functional. To be noted: 168 h.
Test [16] concerns Mycobacterium tuberculosis. As to the kind of experiment: Antimycobacterial activity against Mycobacterium tuberculosis clinical isolate X005319 under normoxic condition after 7 days by MABA assay. The class given is functional. To be noted: clinical isolate X005319, 168 h.
The test system of test [17] is Acinetobacter baumannii. As to the kind of experiment: Antibacterial activity against Acinetobacter baumannii ATCC BAA-747 at 10 ug/ml after 16 hrs. The class given is functional. To be noted: ATCC BAA-747, 16 h.
The subject of a further test is Streptococcus pneumoniae. As to the kind of experiment: Antibacterial activity against Streptococcus pneumoniae ATCC 49619 after 20 hrs. The class given is functional. To be noted: ATCC 49619, 20 h.
The subject of test [18] is Escherichia coli. As to the kind of experiment: Antibacterial activity against Escherichia coli ATCC 25922 after 16 hrs. The class given is functional. To be noted: ATCC 25922, 16 h.
The subject of test [19] is Mycobacterium tuberculosis. As to the kind of experiment: Antimycobacterial activity against Mycobacterium tuberculosis clinical isolate X004439 under normoxic condition after 7 days by MABA assay. The class given is functional. To be noted: clinical isolate X004439, 168 h.
The subject of test [20] is Candida albicans. As to the kind of experiment: Antifungal activity against Candida albicans ATCC 10231 after 48 hrs. To be noted: ATCC 10231, 48 h. The class given is functional.
Test [21] relates to Staphylococcus aureus. As to the kind of experiment: Antibacterial activity against Staphylococcus aureus ATCC 29213 at 10 ug/ml after 16 hrs. The class given is functional. To be noted: ATCC 29213, 16 h.
Test [22] relates to Mycobacterium tuberculosis. As to the kind of experiment: Ratio of MIC for Mycobacterium tuberculosis H37Rv under normoxic condition in presence of 10% fetal bovine serum to MIC for Mycobacterium tuberculosis H37Rv under normoxic condition in absence of 10% fetal bovine serum by MABA assay. The class given is functional.
Test [23] relates to Streptomyces lavendofoliae. As to the kind of experiment: Antibacterial activity against Streptomyces lavendofoliae after 16 hrs. The class given is functional.

Turning to `CC(C)C[C@@H]1NC(=O)[C@H]2CCCNN2C(=O)[C@H](C)N(C)C(=O)[C@H]2CCCNN2C(=O)[C@@H]2CCCNN2C(=O)[C@@H](C(C)C)NC1=O`, the inhibition at 10 µg/mL came to 17% in the test with Escherichia coli [1]; 17% in the test with Candida albicans [8]; 7% in the test on Pseudomonas aeruginosa [14]; 37% in the test on Acinetobacter baumannii [17]; 86% in the test on Staphylococcus aureus [21]. Further, the MIC90 is 8 µg/mL (≈ 12.6 µM) in the test on Enterococcus faecalis; 9.6 µg/mL (≈ 15.1 µM) in test [2]; 16.9 µg/mL (≈ 26.7 µM) in test [3]; 9.7 µg/mL (≈ 15.3 µM) in test [5]; 11.3 µg/mL (≈ 17.8 µM) in test [6] (Mycobacterium tuberculosis, H37Rv, 168 h); greater than 10 µg/mL against Staphylococcus aureus [7]. Besides, the MIC90 was 22.9 µg/mL (≈ 36.1 µM) in test [9]; greater than 10 µg/mL against Pseudomonas aeruginosa [10]; greater than 10 µg/mL in test [11]; greater than 10 µg/mL in the test with Acinetobacter baumannii [12]; 24.1 µg/mL in [13]; 29.2 µg/mL in [15]. In addition, the MIC90 in test [16] is 19.2 µg/mL (≈ 30.3 µM); with Streptococcus pneumoniae, 8.4 µg/mL (≈ 13.3 µM); against Escherichia coli [18], greater than 10 µg/mL; in test [19], 9.3 µg/mL (≈ 14.7 µM); in the test with Candida albicans [20], greater than 10 µg/mL. In addition, the Ratio in [4] and in [22] was 2 throughout. The compound also gave an IC50 in the test with Vero of 24.2 µg/mL (≈ 38.2 µM). The compound also came in with an MBC90 in [6] greater than 50 µg/mL.
On to `C=C1NC(CC(C)C)C(=O)N[C@H](C(C)C)C(=O)N2NCCCC2C(=O)CC(CC(C)C)C(=O)N2NCCCC2C(=O)OC(C)[C@H]1NC(=O)[C@@H](NC=O)[C@@H](C)CC` (some centres not stated), for which the minimal inhibitory concentration (MIC) in test [23] turned out to be 3.12 µg/mL (≈ 3.95 µM).

In general, inhibition refers to the relative decrease from the control value, in per cent. A word on the MIC90: it is an inhibitory concentration at the 90% level, which refers to growth in some studies and to a panel of isolates in others. The term IC50 denotes the concentration at which inhibition is half-maximal. As usually defined, the MIC is the lowest concentration that inhibits growth of the organism.
